In patent US20260176285A1, “SALT OF DIOXANE QUINOLINE COMPOUND, CRYSTAL FORM THEREOF, PREPARATION METHODS THEREFOR AND USES THEREOF” (Beijing Scitech-MQ Pharmaceuticals Limited, priority 2022, published 2026):

Columns and labels:
Format in all cases: physicochemical
[1] = Hygroscopicity by dynamic moisture sorption (DVS); settings: DVS, listed as Di-p-toluenesulfonate salt crystal form A-IV
Experimental: Dynamic moisture sorption (DVS): The curves were collected on a DVS Intrinsic of SMS (Surface Measurement Systems). At 25° C., the humidity range was 0% RH-95% RH, the step was 10% (the last step was 5%), and the dm/dt was 0.002%/min.
The hygroscopicity of the free compound of formula (I), mucate salt crystal form A-I, p-toluenesulfonate salt crystal forms A-II and B-III, di-p-toluenesulfonate salt crystal form A-IV and phosphate salt crystal form A-V was evaluated by dynamic moisture sorption instrument (DVS). Starting from 0% relative humidity (0% RH), the test collected the mass change percentage of the samples under constant temperature of 25° C. with humidity changes (0% RH-95% RH-0% RH).

[2] = Solid-state stability evaluation (XRPD, HPLC); settings: listed as Di-p-toluenesulfonate salt crystal form A-IV
Experimental: The following 6 test samples were placed under 25° C./60% RH and 40° C./75% RH conditions for 1 week, and then the physical and chemical stability of the samples was tested by XRPD and HPLC.
At the same time, after the p-toluenesulfonate salt crystal form A-II and crystal form B-III solids were placed at 80° C. for 24 hours, the physical and chemical stability of the samples were tested by XRPD and HPLC.

[3] = Dynamic solubility in water, SGF, FaSSIF and FeSSIF; design: S (dynamic solubility): unit not given here; settings: listed as Di-p-toluenesulfonate salt crystal form A-IV; for S (dynamic solubility): 37° C., feed 10 mg/mL
Experimental: Biological solvent Preparation • 1. […] 67.5 μL of concentrated hydrochloric acid (12 M) was added and the mixture was adjusted to a pH value of 1.8 with 1 M hydrochloric acid or 1 M NaOH solution. Purified water was added to make up to volume. • 2. Preparation of Fasted State Simulated Intestinal Fluid (FaSSIF): 0.17 g of anhydrous NaH2PO4, 0.021 g of NaOH, and 0.31 g of NaCl were weighed into a 50-mL volumetric flask. About 48 mL of purified water was added to dissolve the mixture completely, and the solution was adjusted to a pH value of 6.5 with 1 M hydrochloric acid or 1 M NaOH solution. Purified water was added to make up to volume. 0.11 g of SIF powder was added and dissolved completely. • 3. Preparation of Fed State Simulated Intestinal Fluid (FeSSIF): 0.41 mL of glacial acetic acid, 0.20 g of NaOH and 0.59 g of NaCl were weighed into a 50-mL volumetric flask. About 48 mL of purified water was added to dissolve the mixture completely, and the solution was adjusted to a pH value of 5.0 with 1 M hydrochloric acid or 1 M NaOH solution. Purified water was added to make up to volume. 0.56 g of SIF powder was added and dissolved completely.
The dynamic solubility of the free state, the mucate salt crystal form A-I, the p-toluenesulfonate salt crystal form A-II, the di-p-toluenesulfonate salt crystal form A-IV and the phosphate salt crystal form A-V of the compound of formula (I) in water and three biological solvents was evaluated.
The samples at each time point were centrifuged and filtered (0.45 μm PTFE filter head), and the HPLC concentration and pH value of the filtrate were determined.

O=C(Nc1ccc(F)cc1)C1(C(=O)Nc2ccc(Oc3ccnc4cc(OCCCN5CCOCC5)c5c(c34)OCCO5)c(F)c2)CC1 [Example 4, N-(3-fluoro-4-((5-(3-morpholinopropoxy)-2,3-dihydro-[1,4]dioxano[2,3-f]quinolin-10-yl)oxy)phenyl)-N-(4-fluorophenyl)cyclopropane-1,1-dicarboxamide]
Moisture adsorption (25° C./80% RH) ([1]; 25° C./80% RH): 3.70% | Hygroscopicity ([1]; 25° C.): Hygroscopic | Purity ([2]; 25° C./60% RH, 1 week): 99.19 area % | Purity/initial purity ([2]; 25° C./60% RH, 1 week): 100.0% | Purity ([2]; 40° C./75% RH, 1 week): 99.25 area % | Purity/initial purity ([2]; 40° C./75% RH, 1 week): 100.1% | Purity ([2]; Starting): 99.18 area % | S (dynamic solubility) ([3]; FaSSIF, 1 hour): 0.035 | pH of the filtrate ([3]; FaSSIF, 1 hour): 5.6 | S (dynamic solubility) ([3]; FaSSIF, 2 hours): 0.080 | pH of the filtrate ([3]; FaSSIF, 2 hours): 5.2 | S (dynamic solubility) ([3]; FaSSIF, 4 hours): 0.16 | pH of the filtrate ([3]; FaSSIF, 4 hours): 5.0 | S (dynamic solubility) ([3]; FaSSIF, 24 hours): 0.20 | pH of the filtrate ([3]; FaSSIF, 24 hours): 5.0 | S (dynamic solubility) ([3]; FeSSIF, 1 hour): 1.6 | pH of the filtrate ([3]; FeSSIF, 1 hour): 4.9 | S (dynamic solubility) ([3]; FeSSIF, 2 hours): 1.8 | pH of the filtrate ([3]; FeSSIF, 2 hours): 4.8 | S (dynamic solubility) ([3]; FeSSIF, 4 hours): 1.4 | pH of the filtrate ([3]; FeSSIF, 4 hours): 4.8 | S (dynamic solubility) ([3]; FeSSIF, 24 hours): 1.0 | pH of the filtrate ([3]; FeSSIF, 24 hours): 4.9 | S (dynamic solubility) ([3]; H2O, 1 hour): 2.9 | pH of the filtrate ([3]; H2O, 1 hour): 3.7 | S (dynamic solubility) ([3]; H2O, 2 hours): 2.9 | pH of the filtrate ([3]; H2O, 2 hours): 3.9 | S (dynamic solubility) ([3]; H2O, 4 hours): 2.8 | pH of the filtrate ([3]; H2O, 4 hours): 3.8 | S (dynamic solubility) ([3]; H2O, 24 hours): 2.7 | pH of the filtrate ([3]; H2O, 24 hours): 3.8 | S (dynamic solubility) ([3]; SGF, 1 hour): 4.5 | pH of the filtrate ([3]; SGF, 1 hour): 1.9 | S (dynamic solubility) ([3]; SGF, 2 hours): 4.6 | pH of the filtrate ([3]; SGF, 2 hours): 1.9 | S (dynamic solubility) ([3]; SGF, 4 hours): 4.3 | pH of the filtrate ([3]; SGF, 4 hours): 1.9 | S (dynamic solubility) ([3]; SGF, 24 hours): 4.2 | pH of the filtrate ([3]; SGF, 24 hours): 1.9
